Measurements reported in paper PMC8119466, “A screen of FDA-approved drugs identifies inhibitors of protein tyrosine phosphatase 4A3 (PTP4A3 or PRL-3)” (Scientific Reports, 2021).
Where a name gives a salt, the structure may show the parent alone. Read-outs that look alike come from different tables or passages of the source.

Experiments:
Type in all cases: biochemical
recombinant PRL-3 = target: T1, recombinant PRL-3 (Homo sapiens, UniProt O75365); assay: In vitro phosphatase assay (DiFMUP hydrolysis), PRL-3; on % Phosphatase Activity (compared to DMSO) PRL-3: test concentration or dose not given here
T1 construct: 6xHis (N, cleaved yes); made in house; host or cells: E. coli One Shot BL21 Star
T1 sequence (O75365 whole entry): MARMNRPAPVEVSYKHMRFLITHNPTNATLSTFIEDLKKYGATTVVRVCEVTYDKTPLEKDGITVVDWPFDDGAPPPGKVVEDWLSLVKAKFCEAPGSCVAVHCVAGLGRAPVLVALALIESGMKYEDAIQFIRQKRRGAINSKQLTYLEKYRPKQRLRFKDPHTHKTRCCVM

recombinant PRL-1 = target: T2, recombinant PRL-1 (Homo sapiens, UniProt Q93096); assay: In vitro phosphatase assay (DiFMUP hydrolysis), PRL-1; on % Phosphatase Activity (compared to DMSO) PRL-1: test concentration or dose not given here
T2 construct: 6xHis (N, cleaved yes); made in house; host or cells: E. coli One Shot BL21 Star
T2 sequence (Q93096 1-173): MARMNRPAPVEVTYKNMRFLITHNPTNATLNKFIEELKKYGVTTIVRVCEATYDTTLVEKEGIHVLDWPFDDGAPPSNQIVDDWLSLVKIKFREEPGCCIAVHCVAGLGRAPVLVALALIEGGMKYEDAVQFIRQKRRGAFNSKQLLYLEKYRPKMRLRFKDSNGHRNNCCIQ

recombinant PRL-2 = target: T3, recombinant PRL-2 (Homo sapiens, UniProt Q12974); assay: In vitro phosphatase assay (DiFMUP hydrolysis), PRL-2;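 further: PRL-2 activity read as DiFMUP hydrolysis after 20 min at room temperature with drug, enzyme first pre-reduced at 4 °C for 20 min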
T3 construct: 6xHis (N, cleaved yes); made in house; host or cells: E. coli One Shot BL21 Star
T3 sequence (Q12974 1-167): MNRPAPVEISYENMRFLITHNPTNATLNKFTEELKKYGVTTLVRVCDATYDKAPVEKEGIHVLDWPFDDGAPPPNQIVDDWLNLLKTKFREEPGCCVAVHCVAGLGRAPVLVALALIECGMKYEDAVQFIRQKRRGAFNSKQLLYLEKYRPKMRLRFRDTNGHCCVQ

[1] = FDA-approved drug screen, activity compared to DMSO
[2] = FDA-approved drug screen, compared to DMSO

SMILES | % Phosphatase Activity (compared to DMSO) PRL-3 (recombinant PRL-3; [2]) [%] | % Phosphatase Activity (compared to DMSO) PRL-1 (recombinant PRL-1; [2]) [%] | % Phosphatase Activity (compared to DMSO) PRL-2 (recombinant PRL-2; [2]) [%] | other results
COc1cc2nc(N3CCN(C(=O)C4CCCO4)CC3)nc(N)c2cc1OC (stereo not drawn) [Terazosin HCl] |  |  |  | % Phosphatase Activity (compared to DMSO) PRL-3 (recombinant PRL-3; [1]): 324%; % Phosphatase Activity (compared to DMSO) PRL-1 (recombinant PRL-1; [1]): 510%; % Phosphatase Activity (compared to DMSO) PRL-2 (recombinant PRL-2; [1]): 644%
N=C(N)NC(=O)c1nc(Cl)c(N)nc1N [Amiloride hydrochloride dihydrate] | 220 | 254 | 219 | 
CC1=NN(c2ccc(C)c(C)c2)C(=O)/C1=N\Nc1cccc(-c2cccc(C(=O)O)c2)c1O [Eltromobag Olamine, reference compound] |  |  |  | IC50 (recombinant PRL-3; […] protein, DiFMUP at KM, read-out: Calculated IC50, PRL-3 phosphatase activity): 27 ± 4 µM; IC50 (recombinant PRL-1; […] protein, DiFMUP at KM, read-out: Calculated IC50, PRL-1 phosphatase activity): 61 ± 15 µM; IC50 (recombinant PRL-2; […] protein, DiFMUP at KM, read-out: Calculated IC50, PRL-2 phosphatase activity): 166 ± 22 µM
COc1cc2ncnc(Nc3ccc(F)c(Cl)c3)c2cc1OCCCN1CCOCC1 [Gefitinib (ZD1839)] | 77 | 93 | 102 | 
CC(=O)O[C@H]1C(=O)[C@@]2(C)[C@H]([C@H](OC(=O)c3ccccc3)[C@]3(O)C[C@H](OC(=O)[C@H](O)[C@@H](NC(=O)c4ccccc4)c4ccccc4)C(C)=C1C3(C)C)[C@]1(OC(C)=O)CO[C@@H]1C[C@@H]2O [Paclitaxel] | 76 | 94 | 97 | 
CC(=O)OCC(=O)[C@@]12N=C(C)O[C@@H]1C[C@H]1[C@@H]3CCC4=CC(=O)C=C[C@]4(C)[C@H]3[C@@H](O)C[C@@]12C [Deflazacort] | 103 | 90 | 102 | 
Clc1ccc2c(c1)C(N1CCNCC1)=Nc1ccccc1O2 [Amoxapine] | 88 | 109 | 118 | 
Cl.N=C(N)NN [Aminoguanidine (hydrochloride)] | 87 | 100 | 91 | 
CO[C@H]1/C=C/O[C@@]2(C)Oc3c(C)c(O)c4c(O)c(c(/C=N/N5CCN(C)CC5)c(O)c4c3C2=O)NC(=O)/C(C)=C\C=C\[C@H](C)[C@H](O)[C@@H](C)[C@@H](O)[C@@H](C)[C@H](OC(C)=O)[C@@H]1C [Rifampin] | 71 | 58 | 49 | 
C#C[C@]1(O)CC[C@H]2[C@@H]3CCC4=CC(=O)CC[C@@H]4[C@H]3CC[C@@]21C [Norethindrone] | 79 | 92 | 104 | 
CCOC(=O)C1=C(COCCN)NC(C)=C(C(=O)OC)C1c1ccccc1Cl (stereo not drawn) [Amlodipine] | 149 | 145 | 157 | 
CNC[C@H](O)[C@@H](O)[C@H](O)[C@H](O)CO [Meglumine] | 110 | 105 | 125 | 
CCN1CCN(Cc2ccc(Nc3ncc(F)c(-c4cc(F)c5nc(C)n(C(C)C)c5c4)n3)nc2)CC1 [LY2835219] | 99 | 92 | 79 | 
C[N+](C)(C)C[C@H](O)CC(=O)[O-] [L-carnitine] | 83 | 102 | 103 | 
CCN[C@H]1CN(CCCOC)S(=O)(=O)c2sc(S(N)(=O)=O)cc21 [Brinzolamide] | 81 | 92 | 110 | 
OCCN(CCO)c1nc(N2CCCCC2)c2nc(N(CCO)CCO)nc(N3CCCCC3)c2n1 [Dipyridamole] | 219 | 182 | 258 | 
Nc1ccc(S(=O)(=O)Nc2nccs2)cc1 [Sulfathiazole] |  |  |  | % Phosphatase Activity (compared to DMSO) PRL-3 (recombinant PRL-3; [1]): 87%; % Phosphatase Activity (compared to DMSO) PRL-1 (recombinant PRL-1; [1]): 119%; % Phosphatase Activity (compared to DMSO) PRL-2 (recombinant PRL-2; [1]): 114%
CCN(CC)CCNC(=O)c1ccc(N)cc1 [Procainamide HCl] | 75 | 94 | 127 | 

SMILES | % Phosphatase Activity (compared to DMSO) PRL-3 (recombinant PRL-3; [2]) [%] | % Phosphatase Activity (compared to DMSO) PRL-1 (recombinant PRL-1; [2]) [%] | % Phosphatase Activity (compared to DMSO) PRL-2 (recombinant PRL-2; [2]) [%] | other results
CN[C@H](CC(C)C)C(=O)N[C@H]1C(=O)N[C@@H](CC(N)=O)C(=O)N[C@H]2C(=O)N[C@H]3C(=O)N[C@H](C(=O)N[C@H](C(=O)O)c4cc(O)cc(O)c4-c4cc3ccc4O)[C@H](O)c3ccc(c(Cl)c3)Oc3cc2cc(c3O[C@@H]2O[C@H](CO)[C@@H](O)[C@H](O)[C@H]2O[C@H]2C[C@](C)(N)[C@H](O)[C@H](C)O2)Oc2ccc(cc2Cl)[C@H]1O [Vancomycin HCl] |  |  |  | % Phosphatase Activity (compared to DMSO) PRL-3 (recombinant PRL-3; [1]): 99%; % Phosphatase Activity (compared to DMSO) PRL-1 (recombinant PRL-1; [1]): 99%; % Phosphatase Activity (compared to DMSO) PRL-2 (recombinant PRL-2; [1]): 109%
Cc1cc(O)ccc1Cl [Chlorocresol] | 77 | 89 | 101 | 
O=C(O)CCC(=O)c1ccc(-c2ccccc2)cc1 [Fenbufen] | 90 | 98 | 103 | 
Cc1ccccc1N1C(=O)c2cc(S(N)(=O)=O)c(Cl)cc2NC1C (stereo not drawn) [Metolazone] | 121 | 144 | 163 | 
CC[C@H](Nc1ncnc2[nH]cnc12)c1nc2cccc(F)c2c(=O)n1-c1ccccc1 [CAL-101 (Idelalisib, GS-1101)] | 77 | 102 | 104 | 
CS(=O)(=O)CCNCc1ccc(-c2ccc3ncnc(Nc4ccc(OCc5cccc(F)c5)c(Cl)c4)c3c2)o1.Cc1ccc(S(=O)(=O)O)cc1.Cc1ccc(S(=O)(=O)O)cc1 [Lapatinib (GW-572016) Ditosylate] |  |  |  | % Phosphatase Activity (compared to DMSO) PRL-3 (recombinant PRL-3): 142%; % Phosphatase Activity (compared to DMSO) PRL-1 (recombinant PRL-1): 212%; % Phosphatase Activity (compared to DMSO) PRL-2 (recombinant PRL-2): 255%
C#C[C@]1(O)CC[C@H]2[C@@H]3CCc4cc(O)ccc4[C@H]3CC[C@@]21C [Ethinyl Estradiol] | 75 | 99 | 99 | 
CC(=O)Nc1nnc(S(N)(=O)=O)s1 [Acetazolamide] | 88 | 91 | 97 | 
CN1CCN(C2=Nc3cc(Cl)ccc3Nc3ccccc32)CC1 [Clozapine] | 85 | 108 | 95 | 
CCOc1ccccc1OCCN[C@H](C)Cc1ccc(OC)c(S(N)(=O)=O)c1 [Tamsulosin] |  |  |  | % Phosphatase Activity (compared to DMSO) PRL-3 (recombinant PRL-3; [1]): 83%; % Phosphatase Activity (compared to DMSO) PRL-1 (recombinant PRL-1; [1]): 96%; % Phosphatase Activity (compared to DMSO) PRL-2 (recombinant PRL-2; [1]): 107%
C[C@@H]1CCO[C@H]2Cn3cc(C(=O)NCc4ccc(F)cc4F)c(=O)c(O)c3C(=O)N12 [Dolutegravir (GSK1349572)] | 99 | 105 | 101 | 
CO/N=C(\C(=O)N[C@@H]1C(=O)N2C(C(=O)OCOC(=O)C(C)(C)C)=C(/C=C\c3scnc3C)CS[C@H]12)c1csc(N)n1 [Cefditoren Pivoxil] | 113 | 88 | 94 | 
CN(N=O)C(=O)N[C@H]1C(O)O[C@H](CO)[C@@H](O)[C@@H]1O (mixture of isomers) [Streptozotocin (STZ)] |  |  |  | % Phosphatase Activity (compared to DMSO) PRL-3 (recombinant PRL-3; [1]): 78%; % Phosphatase Activity (compared to DMSO) PRL-1 (recombinant PRL-1; [1]): 96%; % Phosphatase Activity (compared to DMSO) PRL-2 (recombinant PRL-2; [1]): 88%
C[C@H](Oc1ccc(S(C)(=O)=O)cc1C(=O)N1CCN(c2ncc(C(F)(F)F)cc2F)CC1)C(F)(F)F [Bitopertin] | 82 | 93 | 73 | 
CCOC(=O)[C@H](CCc1ccccc1)N[C@@H](C)C(=O)N1CCC[C@H]1C(=O)O [Enalapril Maleate] | 93 | 83 | 92 | 
Cc1cc(C)c2c(c1)[C@@H](N(Cc1cc(C(F)(F)F)cc(C(F)(F)F)c1)c1nnn(C)n1)CCCN2C[C@H]1CC[C@H](C(=O)O)CC1 [Evacetrapib (LY2484595)] | 84 | 84 | 86 | 
Cc1nnc(NS(=O)(=O)c2ccc(N)cc2)s1 [Sulfamethizole] |  |  |  | % Phosphatase Activity (compared to DMSO) PRL-3 (recombinant PRL-3; [1]): 92%; % Phosphatase Activity (compared to DMSO) PRL-1 (recombinant PRL-1; [1]): 88%; % Phosphatase Activity (compared to DMSO) PRL-2 (recombinant PRL-2; [1]): 99%
c1ccc(CC2=NCCN2)cc1 [Tolazoline HCl] |  |  |  | % Phosphatase Activity (compared to DMSO) PRL-3 (recombinant PRL-3; [1]): 91%; % Phosphatase Activity (compared to DMSO) PRL-1 (recombinant PRL-1; [1]): 100%; % Phosphatase Activity (compared to DMSO) PRL-2 (recombinant PRL-2; [1]): 110%
